Columns and labels:
Assay in all cases: relative viability (nuclei count vs DMSO), 5 days (fraction); higher = more cells survive
[1] = compound: Cc1cnc(Nc2ccc(OCCN3CCCC3)cc2)nc1Nc1cccc(S(=O)(=O)NC(C)(C)C)c1 [Fedratinib] + CC(=O)Nc1cccc(-n2c(=O)n(C3CC3)c(=O)c3c(Nc4ccc(I)cc4F)n(C)c(=O)c(C)c32)c1 [Trametinib] (partner 0.02 µM)
Method in brief: (§1)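 Relative viability equals treated-well nuclei counts divided by vehicle-well nuclei counts. Counts came from 4× images of lung cancer cell lines grown in 1536-well plates for 5 days after pin-tool dosing on the day after seeding. Dosing used one drug alone or a fixed anchor-drug dose plus five library-drug doses (not always all listed) in √10 steps, and values are medians of duplicate plates.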

[2] = compound: Cc1cnc(Nc2ccc(OCCN3CCCC3)cc2)nc1Nc1cccc(S(=O)(=O)NC(C)(C)C)c1 [Fedratinib] + CS(=O)(=O)N1CCN(Cc2cc3nc(-c4cccc5[nH]ncc45)nc(N4CCOCC4)c3s2)CC1 [Pictilisib] (partner 1 µM)
Method in brief: as §1

[3] = compound: COC1=CC=C(C=C1)COC2=C(C=C(C=C2)CC3=CN=C(N=C3N)N)OC [GW-2580] + Nc1nc2[nH]cc(CCc3ccc(C(=O)N[C@@H](CCC(=O)O)C(=O)O)cc3)c2c(=O)[nH]1 [Pemetrexed] (partner 0.2 µM)
Method in brief: as §1

[4] = compound: Cc1cnc(Nc2ccc(OCCN3CCCC3)cc2)nc1Nc1cccc(S(=O)(=O)NC(C)(C)C)c1 [Fedratinib] + COc1cc2c(Oc3ccc(NC(=O)C4(C(=O)Nc5ccc(F)cc5)CC4)cc3F)ccnc2cc1OCCCN1CCOCC1 [Foretinib] (partner 0.25 µM)
Method in brief: as §1

[5] = compound: COC1=CC=C(C=C1)COC2=C(C=C(C=C2)CC3=CN=C(N=C3N)N)OC [GW-2580] + C[C@@H](Oc1cc(-c2cnn(C3CCNCC3)c2)cnc1N)c1c(Cl)ccc(F)c1Cl [Crizotinib] (partner 1 µM)
Method in brief: as §1

[6] = compound: Cc1cnc(Nc2ccc(OCCN3CCCC3)cc2)nc1Nc1cccc(S(=O)(=O)NC(C)(C)C)c1 [Fedratinib] + Nc1nc2[nH]cc(CCc3ccc(C(=O)N[C@@H](CCC(=O)O)C(=O)O)cc3)c2c(=O)[nH]1 [Pemetrexed] (partner 0.2 µM)
Method in brief: as §1

Cell Line	relative viability ([1]; first compound 0.1 µM)	relative viability ([1]; first compound 0.3162 µM)	relative viability ([1]; first compound 1 µM)	relative viability ([2]; first compound 0.1 µM)	relative viability ([2]; first compound 1 µM)	relative viability ([3]; first compound 0.08 µM)	relative viability ([3]; first compound 0.8 µM)	relative viability ([3]; first compound 2.53 µM)	relative viability ([3]; first compound 8 µM)	relative viability ([4]; first compound 0.1 µM)	relative viability ([4]; first compound 0.3162 µM)	relative viability ([4]; first compound 1 µM)	relative viability ([5]; first compound 0.08 µM)	relative viability ([5]; first compound 0.8 µM)	relative viability ([5]; first compound 2.53 µM)	relative viability ([5]; first compound 8 µM)	relative viability ([6]; first compound 0.1 µM)	relative viability ([6]; first compound 0.3162 µM)	relative viability ([6]; first compound 1 µM)	relative viability ([2]; first compound 0.3162 µM)
HCC-78	0.677	0.776	0.938	0.227	0.226	0.972	0.939	0.909	0.948	0.504	0.548	0.509	0.331	0.384	0.287	0.297	0.963	0.838	0.881	
LOU-NH91	0.753	0.781	0.752	0.432	0.516	0.349	0.381	0.399	0.412	0.917	0.956	0.875	0.731	0.75	0.753	0.728	0.43	0.351	0.399	0.53
NCI-H3122	0.242	0.205	0.193	0.621	0.152	0.212	0.211	0.203	0.207	0.956	0.9	0.941	0.286	0.309	0.247	0.238	0.186	0.189	0.197	0.551
HCC-827	0.515	0.567	0.503	0.99	0.941	0.242	0.259	0.236	0.276	1.03	1.07	0.96	0.874	0.933	0.863	0.868	0.233	0.271	0.256	0.927
SK-LU-1	0.498	0.454	0.479	0.514	0.285	1.09	1.05	0.878	0.996	0.819	0.78	0.504	1	1.08	0.798	1.06	1	0.906	0.837	0.489
NCI-H1975	0.344	0.234	0.304	0.301	0.15	0.311	0.309	0.323	0.309	1.09	0.947	0.746	1	1.12	0.926	0.796	0.29	0.306	0.272	0.315

Source: the supplement of paper PMC10307832
